Experimental findings from patent US3988473A (priority 1975, dated 1976) are described below.

Values joined by “and” are separate entries in the source; they are usually repeats but may differ in a detail not shown here. Identical values can stand only once. Like-named read-outs stand apart in the source and are kept apart here.

The test system of data set [1] is Dog. The following applies: in vivo.
Data set [2] deals with brain and the spinal cord. The following applies: in vivo.
For data set [3], the system named is rat sciatic nerve. Particulars: in vivo.
Data set [4] can be described thus: in vivo. Particulars: rat, sc.
Data set [5] is described as follows: in vivo. Particulars: mouse, ip.
Data set [6] concerns guinea pigs. The following applies: guinea pig, in vivo, sc, 646 mg/kg.
The test system of data set [7] is Guinea Pig Intradermal Wheals. Particulars: in vivo.
For data set [8] the following is noted: in vivo.
For data set [9], the system named is tissue. The following applies: in vivo.
Data set [10] has as its system Female Mice. Particulars: mouse, in vivo.
Data set [11] can be described thus: in vivo. The following applies: mouse.
The subject of data set [12] is Cat. The following applies: in vivo.
The test system of data set [13] is isolated frog sciatic nerve. The arrangement: species or system Rana pipiens. The following applies: for Greatest Depth of Block (% of action potential): frog, sciatic nerve.
Data set [14] concerns Sheep. Particulars: in vivo.

As to `CCCCN(CC(=O)Nc1c(C)cccc1C)C(C)(C)C` [Compound E, 2-(N-n-butyl-tert.-butylamino)-2',6'-acetoxylide], in data set [1], the “Duration of block of Digital Pain” value was in the range of 1 to 2 days and the “Recovery of the animals” value is “All animals recovered completely”. Also, in data set [2], the “Pathological change in brain and spinal cord” value is recorded as “no pathological change attributable to the drugs was found”. Besides, in data set [3], the “Duration of rat sciatic nerve block, Mean ± S.D.” value was 174 ± 26 min and 200 ± 18 min and 237 min; the “Frequencies and durations (in words)” value is “Frequencies and durations were good”; the “Frequency of rat sciatic nerve block” value is 9/10 and 10/10. In addition, in data set [4], the LD50 was 1070 mg/kg. In [5], this molecule came in with a 50% lethal dose (LD50) of 284 mg/kg. In addition, the Survival entry in data set [6] is reported as “all animals survived”.
On to `Cc1cccc(C)c1NC(=O)C(C)NC(C)(C)C` (centres unmarked) [Compound B, 2-(tert.-butylamino)-2',6'-propionoxylidide], for which, in data set [3], the “Adverse signs in rat sciatic test” value was “Depression, ataxia, loss of righting reflex in some animals”; the Duration was 128 ± 13 and 133 ± 7; the Frequency is reported as 5/5; the Onset was 3 min and 2 min. The “Rat Sciatic Frequency” value in data set [3] is 8/10 and 10/10. In data set [7], the “Guinea Pig Wheal Duration” value is 139 ± 24 and 160 ± 43 and 184 ± 36; the “Guinea Pig Wheal Frequency” value is on record as 12/12. The median lethal dose (LD50) in data set [5] stood at 61 mg/kg.
Turning to `Cc1cccc(C)c1NC(=O)CNC(C)(C)C` [A, 2-(tert.-butylamino)-2',6'-acetoxylidide], the “Local anaesthetic effect (in words)” value in data set [8] is listed as “unusually long-lasting local anaesthetic effect”. In addition, in data set [3], the Duration was 126 ± 12 and 157 ± 18; the Frequency is reported as 5/5; the Onset stood at 5 min. Besides, the “Duration of guinea pig intradermal wheals” value in data set [7] is 129 ± 14 min and 148 ± 20 min and 186 ± 17 min and 197 ± 14 min. For the same molecule, the “Tissue irritation (in words)” value in data set [9] is recorded as “quite satisfactory”. The “Intravenous toxicity (in words)” value in data set [10] (iv) is “unusually low intravenous toxicity”. In data set [11] (ip), this molecule showed an LD50 of 119 mg/kg. In addition, in data set [11] (iv), the LD50 came out at 35.4 mg/kg. In addition, the LD50 in data set [11] (sc) came to 141 mg/kg. The “Duration of Block of Support of Weight” value in data set [12] was 54 ± 9 min and 104 ± 29 min.
In the case of `CCN(CC)CC(=O)Nc1c(C)cccc1C` [Y, diethylaminoaceto-2,6-xylide, reference compound], in data set [7], the “Duration of guinea pig intradermal wheals” value was 78 ± 9 min and 110 ± 13 min and 117 ± 6 min and 121 ± 12 min. Besides, in [12], the “Duration of Block of Support of Weight” value came out at 88 ± 10 min.
In the case of `CCCCN1CCCCC1C(=O)Nc1c(C)cccc1C` (centres unmarked) [X, N-n-butylpipecolyl-2,6-xylidide, reference compound], the “Duration of guinea pig intradermal wheals” value in data set [7] was 182 ± 4 min and 252 ± 5 min and 314 ± 10 min. In addition, the median lethal dose (LD50) in data set [11] (ip) is 40 mg/kg; in data set [11] (iv), 6.4 mg/kg; in [11] (sc) it was 45 mg/kg. Moreover, the “Average time for 80% recovery of action potential” value (shortened to “Average time for 80% recovery”) in data set [13] was 65 min. Moreover, in [13] (5000 µM), the “Greatest Depth of Block (% of action potential)” value amounted to 64%. In addition, the Toxic effects entry in data set [12] is “Toxic effects observed”.
As for `CCCN(CC(=O)Nc1c(C)cccc1C)C(C)(C)CC` [Compound D, 2-(N-n-propyl-tert.-amylamino)-2',6'-acetoxylidide], in data set [1], the “Duration of block of Digital Pain” value was in the range of 1 to 2 days; the “Duration, Digital Pain” value was 289 min and 338 min; the “Duration, Scrotal Pain” value was 218 min and 226 min; the “Recovery of the animals” value is on record as “All animals recovered completely”. In addition, in data set [8], the “Duration of anaesthesia (in words)” value is “significantly longer duration than compounds A and B”; the “Local anaesthetic effect (in words)” value was “unusual, long-lasting local anaesthetic effect and high local anaesthetic activity”. For the same molecule, the “Pathological change in brain and spinal cord” value in [2] is “no pathological change attributable to the drugs was found”. In data set [14], the “Duration of block of Digital Pain” value was 45 to 60 min and the Onset time was 5 to 10 min. Also, in [3], the “Duration of block, 2 animals outside the mean” value was 10 to 13 days; the “Duration of rat sciatic nerve block” value is 217 ± 25 min and 124 ± 50 min and 157 ± 30 min; the “Duration of rat sciatic nerve block (days)” value was 8 to 27 days and 13 to 30 days. For the same molecule, the “Duration of guinea pig intradermal wheals” value in [7] is 171 ± 26 min and 227 ± 21 min and 253 ± 16 min and 303 ± 19 min. For the same molecule, in data set [9], the “Irritation compared with bupivacaine” value is “not more irritating than bupivacaine at 0.5% concentration” and the “Tissue irritation (in words)” value is “satisfactory low level of tissue irritation”. For the same molecule, the “Acute toxicity (in words)” value in data set [10] was “satisfactory low acute toxicity”. Besides, the LD50 in [11] (ip) worked out at 39 mg/kg. Besides, in data set [11] (iv), the LD50 amounted to 6.8 mg/kg. The same molecule returned an LD50 in data set [11] (sc) of 109 mg/kg. Besides, in [13], the “Average time for 80% recovery” value was determined as 163 min. In data set [13] (5000 µM), the “Greatest Depth of Block (% of action potential)” value came to 96%.
As for `CCN(CC(=O)Nc1c(C)cccc1C)C(C)(C)CC` [C, 2-(N-ethyl-tert.-amylamino)-2',6'-acetoxylidide], in data set [8], the “Duration of anaesthesia (in words)” value was “significantly longer duration than compounds A and B”; the “Local anaesthetic effect (in words)” value was “unusual, long-lasting local anaesthetic effect and high local anaesthetic activity”. Also, the “Duration of rat sciatic nerve block (days)” value in [3] lay within 1 to 8 days. Besides, the “Duration of guinea pig intradermal wheals” value in data set [7] is 158 ± 49 min and 230 ± 32 min and 301 ± 11 min. For the same molecule, in data set [9], the “Irritation compared with bupivacaine” value is “not more irritating than bupivacaine at 0.5% concentration” and the “Tissue irritation (in words)” value was “satisfactory low level of tissue irritation”. Besides, in [10], the “Acute toxicity (in words)” value was “satisfactory low acute toxicity”. This molecule gave an LD50 in data set [11] (ip) of 81 mg/kg. Moreover, in data set [11] (iv), the 50% lethal dose (LD50) stood at 7.4 mg/kg. For the same molecule, in data set [13], the “Average time for 80% recovery” value is 29 min. In addition, the “Greatest Depth of Block (% of action potential)” value in data set [13] (20000 µM) was 77%. In addition, in data set [12], the “Duration of Block of Support of Weight” value is 220 ± 64 min and 298 ± 56 min; the “Duration of Block of Support of Weight, 1 animal outside the mean” value was over 7 h.
For the molecule `CCC(C)(C)NCC(=O)Nc1c(C)cccc1C` [Compound F, 2-(N-tert.-amylamino)-2',6'-acetoxylidide], in data set [3], the Duration is 97 ± 4 and 101 ± 8; the Frequency is 6/6; the Onset is 3 min and 2 min.
